Experimental data reported in PubChem BioAssay (NCI).
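Each compound was tested at five concentrations against cells in 96-well plates for 48 hours. TGI is the concentration that stops growth completely.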

Legend:
Assay in all cases: NCI tumour cell line growth inhibition, 48 h
UACC-62 melanoma = system: UACC-62 melanoma
MCF7 breast = system: MCF7 breast
MDA-MB-435 = system: MDA-MB-435
SN12C renal = system: SN12C renal
HL-60(TB) leukemia = system: HL-60(TB) leukemia
SF-539 CNS = system: SF-539 CNS
SK-MEL-2 melanoma = system: SK-MEL-2 melanoma
MALME-3M melanoma = system: MALME-3M melanoma
SK-MEL-28 melanoma = system: SK-MEL-28 melanoma
NCI-H226 lung = system: NCI-H226 lung

| SMILES | TGI (UACC-62 melanoma) [µM] | TGI (MCF7 breast) [µM] | TGI (MDA-MB-435) [µM] | TGI (SN12C renal) [µM] | TGI (HL-60(TB) leukemia) [µM] | TGI (SF-539 CNS) [µM] | TGI (SK-MEL-2 melanoma) [µM] | TGI (MALME-3M melanoma) [µM] | TGI (SK-MEL-28 melanoma) [µM] | TGI (NCI-H226 lung) [µM] |
| --- | --- | --- | --- | --- | --- | --- | --- | --- | --- | --- |
| COc1ccc(OC)c2sc(N3C(=O)/C(=C/c4cccc([N+](=O)[O-])c4)N=C3c3ccccc3)nc12 | > 100 | 48.9 | 58.3 | > 100 | 59.4 | > 100 | > 100 | > 100 | > 100 |  |
| C[C@]12CC[C@@H]3c4ccc(O)cc4CC[C@H]3[C@@H]1C/C(=C\c1ccc(C#N)cc1)C2=O | > 100 | > 100 | 76.8 | > 100 |  | > 100 | > 100 | > 100 | > 100 | > 100 |
| CSc1nc2c(ncn2C2OC(CO)C(O)C(O)C2O)c(=O)[nH]1 (stereo unspecified) | > 100 | > 100 |  | > 100 | > 100 | > 100 | > 100 | > 100 | > 100 | > 100 |
| CCOC(=O)c1ccc(Nc2nc3ccc(C(F)(F)F)cc3nc2C(=O)OCC)cc1 | > 100 | > 100 | > 100 | > 100 | > 100 | > 100 |  | > 100 | > 100 | > 100 |
| O=[N+]([O-])/C(Cl)=C(\NCCN/C(C(Cl)=C(Cl)Cl)=C(/Cl)[N+](=O)[O-])C(Cl)=C(Cl)Cl | > 100 | > 100 | > 100 | > 100 | 87.5 | > 100 |  | > 100 | > 100 | > 100 |
| Cc1cccc(/C(Br)=C2/OC(=O)c3ccccc32)c1 | > 100 | > 100 | > 100 | > 100 |  | > 100 |  | > 100 | > 100 |  |
| Cc1cc(C)nc(NS(=O)(=O)c2ccc(NC(=O)c3cccc4c(NNc5ccc(S(=O)(=O)N=C(N)N)cc5)c5ccccc5nc34)cc2)n1 | > 50 | > 50 | > 50 | > 50 | > 50 | > 50 |  | > 50 |  | > 50 |
| CC(C)[Si](OC/C(=C/COC(C)(C)C)[C@H]1CC=C(C(=O)c2ccccc2N2CN(C)C(=O)N(C)C2)C1)(C(C)C)C(C)C | 23.3 | 15.1 | 30.3 | 24.9 |  | 17.8 | 28.9 | 21.4 | 12.9 | 28.9 |
| CON(C)C(=O)C1CCCO1 (stereo unspecified) | > 100 | > 100 | > 100 | > 100 | > 100 | > 100 | > 100 |  | > 100 | > 100 |
| O=C1C2=Nc3ccccc3C(O)(C(=O)O)N2c2ccccc21 (stereo unspecified) |  | 46.8 | 5.5 | > 100 | 77 | 48.4 | 43.4 | 28.2 | > 100 | > 100 |
| COc1ccc([C@H]2C=[N+]([O-])O[C@H](OC3CCCC3)[C@@H]2OC(C)=O)cc1OC | 77.7 | 49.5 | 67.5 |  | 39.1 | 38 | > 100 | 51.2 | 44.2 | > 100 |
